# Reference: ChEMBL document CHEMBL1136465, “Phenolics with PPAR-gamma ligand-binding activity obtained from licorice (Glycyrrhiza uralensis roots) and ameliorative effects of glycyrin on genetically diabetic KK-A(y) mice” (2003)
# Assays:
# Format in all cases: functional
# [1] = species on record: Mus musculus; assay: Blood glucose level of the diabetic KK-Ay mice on day 0 was measured
# [2] = species on record: Mus musculus; assay: Blood glucose level of the diabetic KK-Ay mice on day 4 was measured
# [3] = species on record: Mus musculus; assay: Body weight of the fasted diabetic KK-Ay mice on day 10 was measured
# [4] = species on record: Mus musculus; assay: Body weight of the non-fasted diabetic KK-Ay mice on day 0 was measured
# [5] = species on record: Mus musculus; assay: Body weight of the non-fasted diabetic KK-Ay mice on day 4 was measured
# [6] = species on record: Mus musculus; assay: Body weight of the non-fasted diabetic KK-Ay mice on day 7 was measured
# [7] = species on record: Mus musculus; assay: Average food intake of the diabetic KK-Ay mice was measured from total intake amount/days/number of mice
# [8] = species on record: Mus musculus; assay: Average sample intake of the diabetic KK-Ay mice was measured as average food intake/average body weight of mice
SMILES,Blood glucose [1] [mg/dL],Blood glucose [2] [mg/dL],Body weight [3] [g],Body weight [4] [g],Body weight [5] [g],Body weight [6] [g],Average food intake [7] [g mouse-1 day-1],Average sample intake [8] [mg/kg/day]
COc1cc2oc(=O)c(-c3ccc(O)cc3O)cc2c(OC)c1CC=C(C)C [GLYCYRIN],474,278,48.1,54.1,50.4,51.9,5.34,102
COc1c(CC=C(C)C)c(O)cc2oc(=O)c3c4ccc(O)cc4oc3c12 [GLYCYROL],427,421,46.8,52.6,49.1,50.3,5.47,108
CCc1ccc(CCOc2ccc(CC3SC(=O)NC3=O)cc2)nc1 (centres undefined) [PIOGLITAZONE],486,191,52.5,55.1,53.6,55.8,6.34,23
